From the kinase profiling compilation of Christmann-Franck et al. (2016) come the findings set out here.

As a reminder, the Ki is the equilibrium dissociation constant of an inhibitor or competing ligand from its target.

Structures are written as SMILES. A value given as a limit tells only on which side of the number the result lay.

Chain of SGK1 (human) (O00141 whole entry, looked up): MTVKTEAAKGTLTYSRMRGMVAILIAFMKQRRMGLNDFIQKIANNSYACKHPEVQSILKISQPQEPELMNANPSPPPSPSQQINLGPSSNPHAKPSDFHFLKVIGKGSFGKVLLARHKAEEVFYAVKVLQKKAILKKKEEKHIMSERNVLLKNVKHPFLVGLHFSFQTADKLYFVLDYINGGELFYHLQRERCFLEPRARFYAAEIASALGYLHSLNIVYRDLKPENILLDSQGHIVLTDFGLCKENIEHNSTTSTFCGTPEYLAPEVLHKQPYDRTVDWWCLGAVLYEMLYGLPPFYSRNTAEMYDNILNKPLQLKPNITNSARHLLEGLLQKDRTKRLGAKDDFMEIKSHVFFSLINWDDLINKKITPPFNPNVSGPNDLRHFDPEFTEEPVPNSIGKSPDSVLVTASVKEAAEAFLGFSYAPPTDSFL

This assay has as its target SGK1 (human) (UniProt O00141). The experiment in a line: Flashplate.
`N[C@@H](Cc1cccc2ccccc12)C(=O)Nc1cncc(/C=C/c2ccncc2)c1` returned a Ki of over 10 µM. With `Cn1cc(C(CN)c2cncc(/C=C/c3ccncc3)c2)c2ccccc21` (configuration not stated), the inhibition constant Ki is over 10 µM.

Turning to `O=C(Cc1ccccc1Cl)Nc1ccc2cn[nH]c2c1`, the Ki is over 10 µM. Molecule `COc1ccc(-c2cnc3c(Br)cnn3c2)cc1` yielded an inhibition constant (Ki) of 3.16 µM.

`COc1cc(-c2ccc3c(c2)Nc2ccc([N+](=O)[O-])cc2NC3=O)ccc1O`: the inhibition constant Ki was over 10 µM. Molecule `COC(=O)c1cc2c(-c3cccc(F)c3)cncc2s1` showed an inhibitory constant (Ki) of over 10 µM.

`OCCNc1cc2cc(-c3ccncc3)ccc2cn1` gave a Ki of over 10 µM. Under `COc1ccc(/C=C2/C(=O)ON=C2c2ccc(Br)cc2)cc1OC` stands over 10 µM; under `NC(=O)c1cc2c(Oc3ccc(Br)cc3)cncc2s1`, 2 µM; under `O=C(Nc1ccc2[nH]ncc2c1)c1cccc(F)c1`, over 10 µM. Regarding `Nc1n[nH]c2nnc(-c3ccccc3)c(-c3ccccc3)c12`, the inhibitory constant (Ki) stood at 2.51 µM. `CN(C)CC(C)(C)CNc1nccc(-c2c(-c3ccc(F)cc3)nc3cnccn23)n1` showed a Ki of over 10 µM. `Nc1nnc(-c2cc3c(Oc4ccc(Cl)cc4)cncc3s2)o1` showed a Ki of 1.58 µM. In other words, the single-digit micromolar range. The molecule `Cc1c(O)cccc1NC(=O)c1cnn2c(-c3ccccc3)ccnc12` displayed a Ki of over 10 µM. Take `Cc1nn(C)c2c1c(=O)c1cc(Cl)ccc1n2OCC(C)C`: the inhibition constant (Ki) is over 10 µM. As for `c1ccc(CNc2nc3ccc(-c4ccncc4)cc3s2)cc1`, the inhibition constant (Ki) was determined as 2.51 µM. Turning to `NC(=O)c1ccc(-c2c[nH]c3nccc(Cl)c23)cc1`, the Ki worked out at 0.251 µM.

On to `Cc1csc(NC(=O)c2sc3nc(-c4ccncc4)ccc3c2N)n1`, for which the Ki was over 10 µM.

`NC(=O)c1sc(-n2cnc3ccccc32)cc1OCc1ccccc1C(F)(F)F` came in with an inhibition constant (Ki) of over 10 µM. `COc1ccc(CNC(=O)Nc2ncc([N+](=O)[O-])s2)cc1` had a Ki of over 10 µM. Molecule `O=C(Nc1cnccn1)Nc1ccnc2ccc(C(F)(F)F)cc12` had an inhibitory constant (Ki) of 3.98 µM. Take `Cc1cc2nnc(SCc3cn4ccccc4n3)n2c2ccccc12`: the inhibitory constant (Ki) was over 10 µM.

With `c1ccc(-c2c[nH]c3ncnc(N4CCCCC4)c23)cc1`, the Ki is over 6.31 µM.

The molecule `Cc1cccc(-c2[nH]c(-c3ccnc(N)n3)cc2C(N)=O)c1C` returned a Ki of over 10 µM. In turn, `COc1cc(-c2ccc3c(c2)Nc2ccc(CCOc4ccc(N5CCOCC5)cc4)cc2NC3=O)ccc1OCC(O)CO` (configuration not stated) displayed a Ki of over 10 µM. Regarding `Cn1cc(-c2cnn3c(N)c(-c4ccc(NC(=O)Nc5cccc(C(F)(F)F)c5)cc4)cnc23)cn1`, the inhibition constant (Ki) was over 10 µM. Under `CN(c1ccccc1CNc1nc(N)nc2[nH]ccc12)S(C)(=O)=O` stands over 10 µM. The molecule `Cc1nnc(-c2cc3c(Oc4ccc(C(F)(F)F)cc4)cncc3s2)o1` showed an inhibitory constant (Ki) of over 10 µM. Consider `COc1cccc([C@H](C)NC(=O)c2ccc(-c3ccncc3)cc2)c1`, for which the Ki was over 10 µM. In turn, `Cc1c(C=O)c(O)n2c(nc3ccccc32)c1C#N` came in with a Ki of over 10 µM. Consider `CCCC(=O)Nc1n[nH]c2ccc(-c3cccc(F)c3F)cc12`, for which the inhibition constant Ki was over 10 µM. `CC(C)(CO)c1nnc2ccc(-c3c(-c4ccc(F)cc4F)nc4n3CCC4)nn12` returned an inhibition constant (Ki) of over 10 µM.

`O=C(N/N=C/c1ccc(Sc2nc3ccccc3[nH]2)o1)c1cccc([N+](=O)[O-])c1`: the Ki is over 10 µM.

`O=C1NCc2c1cccc2-c1ccc(Nc2nc3ccccc3[nH]2)cc1`: the Ki was 5.01 µM.

In turn, `Cc1ccc(CNc2c(Nc3ccncc3)c(=O)c2=O)cc1C` showed a Ki of over 10 µM. Turning to `CCN(CC)C(=O)Nc1ccc2nc(-c3ccco3)c(-c3ccco3)nc2c1`, the inhibition constant (Ki) was over 10 µM.

In the case of `CCNNc1cc(C)c(C#N)c2nc3ccccc3n12`, the Ki was over 10 µM. With `COc1cccc([C@@H](C)NC(=O)c2ccc(-c3ccncc3F)cc2OC)c1`, the Ki worked out at 0.631 µM. Molecule `O=C1NCCc2[nH]c(-c3ccnc(-c4ccccc4F)c3)cc21` showed an inhibition constant Ki of over 10 µM.

For the molecule `COc1cccc(-c2cc3c(=O)[nH]c4ccccc4n3c2)c1`, the Ki was over 10 µM. The molecule `Fc1cnc(Nc2ccccc2)nc1Nc1ccccc1` showed a Ki of over 10 µM. As for `Cn1nc(N)c2c(-c3ccc(NC(=O)Nc4cccc(C(F)(F)F)c4)cc3)cncc21`, the Ki is over 10 µM. On to `O=C(c1cccc(-c2cnc3[nH]ccc3c2)c1)N1CCOCC1`, for which the Ki was over 10 µM. `COc1cc(CN2CCCCC2)c(Cl)cc1NC(=O)Nc1cnc(C#N)cn1` came in with an inhibitory constant (Ki) of over 10 µM. Molecule `Cc1cnc(Nc2cccc(S(N)(=O)=O)c2)nc1Nc1ccc(OCC(N)=O)cc1` displayed an inhibition constant Ki of 6.31 µM.

The molecule `Cc1cc(C)cc(NC(=O)Nc2ccc(-c3cccc4snc(N)c34)cc2)c1` returned a Ki of over 10 µM. `OCCNc1cc2cc(-c3ccccc3)ccc2cn1` had a Ki of over 10 µM. Regarding `CCOc1nc(C(=O)NCc2ccc(S(C)(=O)=O)cc2)cc(N)c1Cl`, the Ki is over 10 µM. Consider `Cc1cc(Cl)ccc1NC(=S)NNC(=O)C(O)(c1ccccc1)c1ccccc1`, for which the Ki came to 6.31 µM. This counts as single-digit micromolar. `Cc1ccc2c(c1)NC(=O)c1ccccc1N2` gave a Ki of over 10 µM. In turn, `Cc1n[nH]c2ccc(-c3cncc(OC[C@@H](N)Cc4ccc(Cl)c(Cl)c4)c3)cc12` yielded a Ki of 0.0794 µM. In turn, `NCCOc1cncc(/C=C/c2ccncc2)c1` registered an inhibition constant Ki of over 10 µM. Under `O=C(NCCCCCCNC(=O)Nc1cccnc1)Nc1cccnc1` stands over 10 µM.

In turn, `CN1CCN(CCCNc2cccc(-c3nc4c(C(N)=O)cccc4[nH]3)n2)CC1` came in with an inhibitory constant (Ki) of over 10 µM. Under `Cc1cc(NC(=O)CCNC(=O)Nc2nc(C)c(-c3ccc(-n4cccn4)cc3)s2)no1` stands over 10 µM. `O=c1[nH]c2sccc2c2nc(-c3ccncc3)nn12` displayed an inhibitory constant (Ki) of over 10 µM. Molecule `Nc1n[nH]c2cc(-c3ccc(NC(=O)Nc4cccc(C(F)(F)F)c4)cc3)ccc12` gave a Ki of over 10 µM. In the case of `Cc1ccc(F)c(NC(=O)Nc2ccc(-c3cncc4c3c(N)nn4C)cc2)c1`, the Ki was over 10 µM. On to `Nc1n[nH]c2ccc(-c3nnn(Cc4ccccc4)c3-c3ccccc3)cc12`, for which the Ki came to 0.631 µM. Under `NCCCOc1cncc(/C=C/c2ccncc2)c1` stands over 10 µM; under `C[C@H](N)COc1cnc(Cl)c(/C=C/c2ccncc2)c1`, 5.01 µM; under `CC(=O)NCC(=O)N1C2CCC1c1cc(Nc3ncc(C(F)(F)F)c(NC4CCC4)n3)ccc12` (configuration not stated), 0.398 µM. The molecule `NC[C@@H](NC(=O)c1ccc(-c2ccncc2)cc1)c1ccccc1` returned a Ki of 0.794 µM. `Cc1cc(C)c2oc(Nc3ccc(-c4cccc(C(N)=O)c4N)cc3F)nc2c1` registered an inhibition constant Ki of over 10 µM.

For `C/C(=N\NC(=O)c1nnn(-c2nonc2N)c1-c1ccccc1)c1ccco1`, the Ki was over 10 µM.

For the molecule `CCCC(=O)Nc1n[nH]c2ccc(-c3nnn(Cc4ccccc4)c3-c3ccccc3)cc12`, the inhibitory constant (Ki) is 1.58 µM. In turn, `Nc1nonc1-n1nnc(C(=O)N/N=C/c2cccs2)c1-c1ccccc1` came in with a Ki of over 10 µM. The molecule `COc1nccc(-c2c(-c3ccc(F)cc3)ncn2[C@H]2CC[C@H](O)CC2)n1` yielded a Ki of over 10 µM. Under `COc1cc(-c2nn([C@H]3CC[C@H](N4CCN(C(C)=O)CC4)CC3)c3ncnc(N)c23)ccc1NC(=O)c1cc2ccccc2n1C` stands over 10 µM. `O=C(O)c1c2c(nc3ccccc13)C(=C1CCCC1)CC2` gave a Ki of over 10 µM.

`CN(C)CCCOc1cc2c(c(-c3ccc(Nc4nc5ccccc5o4)cc3)c1)CNC2=O` came in with a Ki of over 10 µM.

`NC(=O)c1sc2ccc(Cl)c(Cl)c2c1NC(=O)c1ccc(Cl)cc1` came in with an inhibition constant Ki of over 10 µM.
